Drawing on ChEMBL document CHEMBL4477172, “Bougainvinones A-H, Peltogynoids from the Stem Bark of Purple Bougainvillea spectabilis and Their Cytotoxic Activity” (J Nat Prod, 2016), this text covers IC50 for nine molecules.

A word on the IC50: it is the point on the concentration scale where inhibition reaches its midpoint. A higher IC50 goes with a need for much substance.

SMILES strings stand for the structures.

Holding throughout (type): functional, cell-based
The subject of one test is HT-29. Description: Cytotoxicity against human HT-29 cells after 48 hrs by MTT assay. To be noted: HT-29, 48 h.
Another test deals with HepG2. Description: Cytotoxicity against human HepG2 cells after 48 hrs by MTT assay. To be noted: HepG2, 48 h. In general terms: Tetrazolium assays rely on reduction of a dye to a coloured formazan, in cell work by metabolically active cells.
The next test concerns KB. Description: Cytotoxicity against human KB cells after 48 hrs by MTT assay.
A further test has as its system HeLa S3. Description: Cytotoxicity against human HeLaS3 cells after 48 hrs by MTT assay. To be noted: HeLa S3, 48 h.
Another test deals with MCF7. Description: Cytotoxicity against human MCF7 cells after 48 hrs by MTT assay. The conditions noted are these: MCF7, 48 h.

Take `COc1cccc2c1C(=O)c1c(O)c3c(c(O)c1C2=O)C[C@@](O)(C(=O)CO)C[C@@H]3O[C@H]1C[C@H](N)[C@H](O)[C@H](C)O1` [DOXORUBICIN]: the IC50 in the test with HT-29 turned out to be 0.26 µM; with HepG2, 1.54 µM; in the test with KB it was 0.09 µM.
As for `Cc1c(O)c(C)c2oc3c(c(=O)c2c1O)OCc1ccccc1-3`, the IC50 in the test with HT-29, with HepG2, with HeLa S3, in the test with MCF7 and in the test on KB was > 10 µM in each case.
As for `COc1c(C)c(O)c2c(=O)c3c(oc2c1C)-c1c(O)cccc1CO3`, the concentration for half-maximal inhibition (IC50) in the test with HT-29 is > 10 µM; in the test on HepG2, > 10 µM; in the test on HeLa S3, > 10 µM; in the test with MCF7, > 10 µM; with KB, 6.6 µM.
On to `COc1ccc2c(c1)COc1c-2oc2c(C)c(O)c(C)c(OC)c2c1=O`, for which the IC50 in the test on HT-29, with HepG2, in the test on HeLa S3, with MCF7 and in the test on KB was > 10 µM throughout.
As to `COc1ccc2c(c1)COc1c-2oc2c(C)c(O)c(C)c(O)c2c1=O`, the IC50 is 8.8 µM in the test with HT-29; 7.4 µM in the test with HepG2; 8.4 µM with HeLa S3; 9.7 µM in the test with MCF7; 8.1 µM in the test on KB.
As for `Cc1c(O)c(C)c2oc3c(c(=O)c2c1O)OCc1cccc(O)c1-3`, the IC50 was > 10 µM with HT-29; > 10 µM in the test on HepG2; > 10 µM in the test on HeLa S3; > 10 µM with MCF7; 9 µM in the test with KB.
With `COc1c(C)c(O)c(C)c2oc3c(c(=O)c12)OCc1ccccc1-3`, the concentration for half-maximal inhibition (IC50) in the test on HT-29, in the test with HepG2, with HeLa S3, in the test on MCF7 and in the test on KB was > 10 µM in each case.
On to `COc1c(C)c(OC)c2c(=O)c3c(oc2c1C)-c1ccccc1CO3`, for which the half-maximal inhibitory concentration (IC50) in the test with HT-29, in the test with HepG2, in the test with HeLa S3, with MCF7 and with KB was > 10 µM in each case.
Consider `COc1c(C)c(OC)c2c(=O)c3c(oc2c1C)-c1c(O)cccc1CO3`, for which the IC50 in the test on HT-29, with HepG2, in the test with HeLa S3, in the test with MCF7 and with KB was > 10 µM in each case.
